Measured values from EP1117659B1, “SUBSTITUTED 3-CYANOQUINOLINES AS PROTEIN TYROSINE KINASES INHIBITORS” (Wyeth Holdings Corporation, priority 1998, dated 2000).
Values joined by “and” are separate entries in the source; they are usually repeats but may differ in a detail not shown here. Equal values may be shown once. Where a name gives a salt, the structure may show the parent alone. Read-outs that look alike come from different tables or passages of the source.

Assays:
Format in all cases: biochemical
[1] = target: T1, epidermal growth factor receptor kinase (EGF-R Kinase, recombinant enzyme; His-tagged cytoplasmic domain of EGFR) (Homo sapiens, UniProt P00533); assay: Inhibition of Epidermal Growth Factor Receptor Kinase (EGF-R) using recombinant enzyme, RR-SRC peptide phosphorylation, 33P-ATP; settings: for inhibition at 0.5 µM: read-out: %Inh @ 0.5 µM; for IC50: recombinant enzyme, 90 min at room temperature
T1 construct: EGFR cDNA encoding amino acids 645 - 1186 preceded by Met-Ala-(His)6; Met-Ala-(His)6 (N); made in house; host or cells: Sf9 insect cells, recombinant baculovirus vHcEGFR52
Procedure: Representative test compounds were evaluated for their ability to inhibit the phosphorylation of the tyrosine residue of a peptide substrate catalyzed by the enzyme epidermal growth factor receptor kinase. The peptide substrate (RR-SRC) has the sequence arg-arg-leu-ile-glu-asp-ala-glu-tyr-ala-ala-arg-gly. The enzyme used in this test procedure is the His-tagged cytoplasmic domain of EGFR. A recombinant baculovirus (vHcEGFR52) was constructed containing the EGFR cDNA encoding amino acids 645 - 1186 preceded by Met-Ala-(His)6. Sf9 cells in 100 mm plates were infected at an moi of 10 pfu/cell and cells were harvested 48 h post infection. A cytoplasmic extract was prepared using 1% Triton X-100 and applied to Ni-NTA column. After washing the column with 20 mM imidazole, HcEGFR was eluted with 250 mM imidazole (in 50 mM Na2HPO4, pH 8.0, 300 mM NaCl). Fractions collected were dialyzed against 10 mM HEPES, pH 7.0, 50 mM NaCl, 10% glycerol, lug/mL antipain and leupeptin and 0.1 mM Pefabloc SC. The protein was frozen in dry ice/methanol and stored -70°C.
Test compounds were made into 10 mg/mL stock solutions in 100% dimethylsulfoxide (DMSO). Prior to experiment, stock solutions were diluted to 500 uM with 100% DMSO and then serially diluted to the desired concentration with HEPES buffer (30 mM HEPES pH 7.4).
For the enzyme reaction, 10 uL of each inhibitor (at various concentrations) were added to each well of a 96-well plate. To this was added 3 uL of enzyme (1:10 dilution in 10mM HEPES, pH 7.4 for final cone. of 1:120). This was allowed to sit for 10 min on ice and was followed by the addition of 5 ul peptide (80 uM final cone.), 10ul of 4X Buffer (Table A), 0.25 uL ^33P-ATP and 12 uL H2O. The reaction was allowed to run for 90 min at room temperature and was followed by spotting the entire volume on to precut P81 filter papers. The filter discs were washed 2X with 0.5% phosphoric acid and radioactivity was measured using a liquid scintillation counter.
The inhibition data for representative compounds of the invention are shown below in TABLE 1. […] The % inhibition of the test compound was determined for at least three different concentrations and the IC50 value was evaluated from the dose response curve. […] CPM(control) is in units of counts per minute and was a number expressing the amount of radiolabled ATP (γ-^33P) incorporated into the RR-SRC peptide substrate by the enzyme after 90 minutes at room temperature in the absence of test compound as measured by liquid scintillation counting. The CPM values were corrected for the background counts produced by ATP in the absence of the enzymatic reaction. […]

[2] = target: Epithelial Cell Kinase (ECK) (Homo sapiens, UniProt P29317); assay: Inhibition of Epithelial Cell Kinase (ECK), immobilized biotinylated peptide, HRP anti-phosphotyrosine readout; settings: IC50, substrate phosphorylation
Procedure: In this standard pharmacological test procedure, a biotinylated peptide substrate is first immobilized on neutravidin-coated microtiter plates. The test drug, the Epithelial Cell Kinase (ECK), Mg^++, sodium vanadate (a protein tyrosine phosphatase inhibitor), and an appropriate buffer to maintain pH (7.2) are then added to the immobilized substrate-containing microtiter wells. ATP is then added to initiate phosphorylation. After incubation, the assay plates are washed with a suitable buffer leaving behind phosphorylated peptide which is exposed to horse radish peroxidase (HRP)-conjugated anti-phosphotyrosine monoclonal antibody. The antibody-treated plates are washed again and the HRP activity in individual wells is quantified as a reflection of degree of substrate phosphorylation. […] Multiple entries for a given compound indication it was tested multiple times.

[3] = target: T2, Kinase insert Domain containing Receptor (KDR: the catalytic domain of the VEGF receptor) (Homo sapiens, UniProt P35968); assay: Inhibition of Kinase insert Domain containing Receptor (KDR), radioactive phosphorylation of Glu:Tyr copolymer; settings: IC50, substrate phosphorylation
T2 construct: KDR: the catalytic domain of the VEGF receptor
Procedure: In this standard pharmacological test procedure, KDR protein is mixed, in the presence or absence of a inhibitor compound, with a substrate peptide to be phosphorylated (a copolymer of glutamic acid and tyrosine, E:Y :: 4:1) and other cofactors such as Mg^++ and sodium vanadate (a protein tyrosine phosphatase inhibitor) in an appropriate buffer to maintain pH (7.2). ATP and a radioactive tracer (either P^32- or P^33- labeled ATP) is then add to initiate phosphorylation. After incubation, the radioactive phosphate associated with the acid-insoluble fraction of the assay mixture is then quantified as reflection of substrate phosphorylation. […] Multiple entries for a given compound indication it was tested multiple times.

[4] = target: Recombinant human MEK 1 (MAPKK) / recombinant human ERK2 (MAPK) (Mek-Erk) (Homo sapiens, UniProt P28482+Q02750); assay: Mitogen Activated Protein Kinase (MAPK) assay, two component coupled Mek-Erk test
Recombinant human MEK 1 (MAPKK) / recombinant human ERK2 (MAPK) (Mek-Erk), sequence (P28482 2-360): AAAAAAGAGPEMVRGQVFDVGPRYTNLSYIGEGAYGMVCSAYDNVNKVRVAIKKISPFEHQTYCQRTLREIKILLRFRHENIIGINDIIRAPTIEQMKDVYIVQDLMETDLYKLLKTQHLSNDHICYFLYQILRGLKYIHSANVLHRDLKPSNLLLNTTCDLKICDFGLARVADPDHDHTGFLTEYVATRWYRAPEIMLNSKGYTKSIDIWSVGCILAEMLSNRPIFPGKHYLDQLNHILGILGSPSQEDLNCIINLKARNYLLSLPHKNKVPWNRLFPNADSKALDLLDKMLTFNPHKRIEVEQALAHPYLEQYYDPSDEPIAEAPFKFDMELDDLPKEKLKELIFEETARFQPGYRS
Recombinant human MEK 1 (MAPKK) / recombinant human ERK2 (MAPK) (Mek-Erk), sequence (Q02750 whole entry): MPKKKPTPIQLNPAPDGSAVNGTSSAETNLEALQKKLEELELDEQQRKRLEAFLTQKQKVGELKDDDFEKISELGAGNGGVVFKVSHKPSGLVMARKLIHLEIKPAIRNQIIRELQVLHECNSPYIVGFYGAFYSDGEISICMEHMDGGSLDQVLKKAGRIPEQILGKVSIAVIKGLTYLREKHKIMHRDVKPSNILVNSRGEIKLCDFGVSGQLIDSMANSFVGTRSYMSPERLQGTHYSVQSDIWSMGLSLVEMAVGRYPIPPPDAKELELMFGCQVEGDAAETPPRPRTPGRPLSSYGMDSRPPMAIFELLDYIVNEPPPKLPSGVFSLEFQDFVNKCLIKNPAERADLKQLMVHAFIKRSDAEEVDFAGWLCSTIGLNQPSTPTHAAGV

Epithelial Cell Kinase (ECK), sequence (P29317 24-976, species assumed): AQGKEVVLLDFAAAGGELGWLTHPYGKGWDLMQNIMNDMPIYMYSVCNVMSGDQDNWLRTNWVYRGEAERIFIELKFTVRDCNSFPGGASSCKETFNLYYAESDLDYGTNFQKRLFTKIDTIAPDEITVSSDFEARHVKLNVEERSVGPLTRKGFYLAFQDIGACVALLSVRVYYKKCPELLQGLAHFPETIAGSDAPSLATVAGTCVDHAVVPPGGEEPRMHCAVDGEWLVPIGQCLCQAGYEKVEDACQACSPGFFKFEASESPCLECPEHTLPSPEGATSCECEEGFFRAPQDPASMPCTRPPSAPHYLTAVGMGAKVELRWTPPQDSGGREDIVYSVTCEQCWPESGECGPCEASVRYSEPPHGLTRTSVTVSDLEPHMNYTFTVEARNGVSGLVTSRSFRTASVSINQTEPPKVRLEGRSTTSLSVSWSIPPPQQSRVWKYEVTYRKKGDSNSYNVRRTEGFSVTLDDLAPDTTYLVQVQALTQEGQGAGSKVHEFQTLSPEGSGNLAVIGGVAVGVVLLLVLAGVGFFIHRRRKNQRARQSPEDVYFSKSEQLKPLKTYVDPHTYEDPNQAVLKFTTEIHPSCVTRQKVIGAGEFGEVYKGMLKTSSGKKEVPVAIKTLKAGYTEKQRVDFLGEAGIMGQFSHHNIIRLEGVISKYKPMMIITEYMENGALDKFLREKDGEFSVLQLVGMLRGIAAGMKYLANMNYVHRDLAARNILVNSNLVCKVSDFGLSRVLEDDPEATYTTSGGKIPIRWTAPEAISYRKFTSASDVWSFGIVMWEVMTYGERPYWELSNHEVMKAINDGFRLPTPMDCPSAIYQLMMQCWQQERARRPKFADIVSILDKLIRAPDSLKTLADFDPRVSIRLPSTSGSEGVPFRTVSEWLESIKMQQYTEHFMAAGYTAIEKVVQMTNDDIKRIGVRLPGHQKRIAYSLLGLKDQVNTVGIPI
T2 sequence (P35968 834-1162 limits assumed): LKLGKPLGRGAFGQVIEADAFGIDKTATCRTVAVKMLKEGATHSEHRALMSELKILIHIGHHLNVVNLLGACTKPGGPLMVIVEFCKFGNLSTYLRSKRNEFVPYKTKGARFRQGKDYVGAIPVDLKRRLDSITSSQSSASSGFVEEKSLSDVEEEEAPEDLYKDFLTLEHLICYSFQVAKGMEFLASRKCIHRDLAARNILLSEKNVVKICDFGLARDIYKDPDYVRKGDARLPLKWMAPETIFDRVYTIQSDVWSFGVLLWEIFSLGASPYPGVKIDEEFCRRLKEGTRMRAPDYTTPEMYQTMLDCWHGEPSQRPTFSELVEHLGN

Molecule	IC50 [2]	IC50 [3]	IC50 [1]	IC50 ([4]; read-out: Mek-Erk)	other results
4-(2,3-Dihydro-1H-indol-6-ylamino)-6,7-diethoxy-quinoline-3-carbonitrile [Example 96]	–	–	–	–	%Inh @ 0.5 µM ([1]; 0.5 µM concentration of test compound): 6%
CCOc1cc2ncc(C#N)c(Nc3ccc4ncsc4c3)c2cc1OCC [Example 97, 4-(Benzothiazol-6-ylamino)-6,7-diethoxy-quinoline-3-carbonitrile HCl Salt]	> 2.56 µM	> 2.56 µM	> 10 µM	–	IC50 ([4]; read-out: Mek-Erk µM): 55 µM; inhibition at 0.5 µM [1]: 7%
CCOc1cc2ncc(C#N)c(Nc3ccc4c(c3)OCO4)c2cc1OCC [Example 98, 4-(Benzo[1,3]dioxol-5-ylamino)-6,7-diethoxy-quinoline-3-carbonitrile]	> 2.65 µM	53 µM and > 2.65 µM	–	–	–
COc1cc2ncc(C#N)c(Nc3ccc4c(c3)NCC4)c2cc1OC [Example 113, 4-(2,3-Dihydro-1H-indol-6-ylamino)-6,7-methoxy-quinoline-3-carbonitrile]	–	8.66 µM	–	–	–
COc1cc2c(Nc3ccc4c(c3)NCC4)c(C#N)cnc2cc1OCCCc1ccncc1 [Example 119, 4-(2,3-Dihydro-1H-indol-6-ylamino)-6-methoxy-7-(3-pyridin-4-yl-propoxy)-quinoline-3-carbonitrile]	22.1 µM and > 2.21 µM	1.55 µM and 2.21 µM	–	–	–
N#Cc1cnc2cc3c(cc2c1Nc1ccc2cn[nH]c2c1)OCCO3 [Example 125, 9-(1H-Indazol-6-ylamino)-2,3-dihydro[1,4]dioxino[2,3-g]quinoline-8-carbonitrile]	–	–	–	35 µM	–
COc1cc2c(Nc3ccc4cn[nH]c4c3)c(C#N)cnc2c(OC)c1OC [Example 128, 4-(1H-Indazol-6-ylamino)-6,7,8-trimethoxy-quinoline-3-carbonitrile]	> 53.3 µM	> 79.9 µM	–	> 100 µM and 100 µM	–
COc1cc2ncc(C#N)c(Nc3cccc4[nH]ccc34)c2cc1OC [Example 136, 4-(1H-Indol-4-ylamino)-6,7-dimethoxy-quinoline-3-carbonitrile]	0.871 µM	> 29 µM	> 1 µM	–	inhibition at 0.5 µM [1]: 33%
COc1cc2ncc(C#N)c(Nc3ccc4[nH]ncc4c3)c2cc1OC [Example 137, 4-(1H-Indazol-5-ylamino)-6,7-dimethoxy-quinoline-3-carbonitrile]	> 2.9 µM	29 µM and > 2.9 µM	0.15 µM	–	–
COc1ccc(OC)c2c(Nc3ccc4cn[nH]c4c3)c(C#N)cnc12 [Example 138, 4-(1H-Indazol-6-ylamino)-5,8-dimethoxy-quinoline-3-carbonitrile]	> 29 µM	> 86.9 µM	–	> 100 µM	–
COc1cc2ncc(C#N)c(Nc3ccc4cn[nH]c4c3)c2cc1OCCCN1CCOCC1 [Example 139, 4-(1H-Indazol-6-ylamino)-7-methoxy-6-(3-morpholin-4-yl-propoxy)-quinoline-3-carbonitrile hydrochloride]	> 2.18 µM	21.8 µM and > 2.18 µM	–	–	IC50 ([4]; read-out: Mek-Erk µM): 15 µM
COc1cc2ncc(C#N)c(Nc3ccc4nn[nH]c4c3)c2cc1OCCCN1CCOCC1 [Example 140, 4-(3H-Benzotriazol-5-ylamino)-7-methoxy-6-(3-morpholin-4-yl-propoxy)-quinoline-3-carbonitrile hydrochloride]	2.18 µM	–	–	–	IC50 ([4]; read-out: Mek-Erk µM, hydrochloride): 22 µM and 15 µM
COc1ccc2c(Nc3ccc4cn[nH]c4c3)c(C#N)cnc2c1 [Example 143, 4-(1H-Indazol-6-ylamino)-7-methoxy-quinoline-3-carbonitrile]	> 31.7 µM	47.6 µM and > 3.17 µM	–	2 µM	–
COc1ccc2c(Nc3ccc4[nH]ccc4c3)c(C#N)cnc2c1 [Example 146, 4-(1H -Indol-5-ylamino)-7-methoxy-quinoline-3-carbonitrile]	–	–	–	3 µM	–
COc1cc2ncc(C#N)c(Nc3ccc4[nH]ccc4c3)c2cc1OC [Example 150, 4-(1H -Indol-5-ylamino)-6,7-Dimethoxy-quinoline-3-carbonitrile]	> 29 µM	0.581 µM	0.0015 µM and 0.004 µM	–	–
COc1cc2ncc(C#N)c(Nc3ccc4[nH]cnc4c3)c2cc1OC [Example 151, 4-(1H -Benzoimidazol-5-ylamino)-6,7-dimethoxy-quinoline-3-carbonitrile]	> 29 µM	29 µM	> 1 µM	–	inhibition at 0.5 µM [1]: 34%
COc1cc2ncc(C#N)c(Nc3ccc4[nH]c(C)nc4c3)c2cc1OC [Example 152, 6,7-Dimethoxy-4-(2-methyl-1H -benzoimidazol-5-ylamino)-quinoline-3-carbonitrile]	> 27.8 µM	–	> 1 µM	> 100 µM	inhibition at 0.5 µM [1]: 24%
COc1cc2ncc(C#N)c(Nc3ccc(Cl)c4ccccc34)c2cc1OC [Example 154, 4-(4-Chloro-naphthalen-1-ylamino)-6,7 -Dimethoxy-quinoline-3-carbonitrile]	0.77 µM	12.8 µM and > 2.57 µM	–	–	–
COc1cc2ncc(C#N)c(Nc3cccc4c3CCCC4)c2cc1OC [Example 155, 6,7-Dimethoxy-4-(5,6,7,8,- tetrahydro-naphthalen-1-ylamino)-quinoline-3-carbonitrile]	–	–	–	4 µM	–
COc1cc2c(Nc3ccc4cn[nH]c4c3)c(C#N)cnc2cc1OCCCl [Example 166, 7-(2-Chloroethoxy)-4-(1H-indazol-6-ylamino)-6-methoxyquinoline-3-carbonitrile]	0.762 µM	> 2.54 µM	–	–	–
COc1cc2c(Nc3ccc4cn[nH]c4c3)c(C#N)cnc2cc1OCCN(C)C [Example 167, 7-(2-Dimethylaminoethoxy)-4-(1H-indazol-6-ylamino)-6-methoxyquinoline-3-carbonitrile]	–	–	> 1 µM	8 µM	inhibition at 0.5 µM [1]: 0%
COc1cc2c(Nc3ccc4cn[nH]c4c3)c(C#N)cnc2cc1OCCN1CCOCC1 [Example 168, 4-(1H-Indazol-6-ylamino)-6-methoxy-7-(2-morpholin-4-yl-ethoxy)quinoline-3-carbonitrile]	> 22.5 µM	4.5 µM	> 1 µM	–	inhibition at 0.5 µM [1]: 1%
CCOc1cc2ncc(C#N)c(Nc3ccc(Sc4nccn4C)c(Cl)c3)c2cc1OCC [Example 172, 4-[3-Chloro-4-(1-methyl-2-imidazolylthio)phenylamino]-6,7-diethoxy-3-quinolinecarbonitrile]	–	–	0.09 µM	–	–
COc1cc2ncc(C#N)c(Nc3ccc(Sc4nccn4C)c(Cl)c3)c2cc1OC [Example 173, 4-[3-Chloro-4-(1-methyl-2-imidazolylthio)phenylamino]-6,7-dimethoxy-3-quinolinecarbonitrile]	–	–	0.5 µM	–	–
C=CC(=O)Nc1ccc2ncc(C#N)c(Nc3ccc(Sc4nccn4C)c(Cl)c3)c2c1 [Example 176, N-{4-[3-Chloro-4-(1-methyl-1H-imidazol-2-ylsulfanyl)-phenylamino]-3-cyano-quinolin-6-yl}-acrylamide]	–	–	0.01 µM	–	–
